According to patent US20090074815A1, “Immunomodulator Compounds as Vaccine Enhancers” (SCICLONE PHARMACEUTICALS, INC., priority 2005, published 2009):

What was measured:
[1] = test system: IFN-γ production by OvA-stimulated splenocytes; assay: OvA-stimulated production of IFN-γ by splenocytes of OvA-immunized mice; type: in vivo; conditions: for Production of IFN-γ by splenocytes: OvA/Alum, 10.0 μg/kg per os; for Production of IFN-γ by splenocytes, % (% of control): OvA/FA
[2] = test system: IFN-γ production by ConA-stimulated splenocytes; assay: IFN-γ production by ConA-stimulated splenocytes (EIA); type: in vivo, mice
[3] = test system: IL-4 production by ConA-stimulated splenocytes; assay: IL-4 production by ConA-stimulated splenocytes (EIA); type: in vivo, mice
[4] = Indices of humoral immunity (CD20+, IgA, IgM, IgG, CH50, circulating immune complexes) before and after vaccination; conditions: patients with infectious syndrome, hepatitis B vaccination with SCV-07, after vaccination, n = 16, M ± m
Experimental: This group, which received SCV-07 and hepatitis B vaccine, included thirty-three (33) essentially healthy students from the Chelyabinsk State Medical Academy.
The hepatitis vaccine Engerix-B® produced by SmithKlineBeecham-Biomed (Russia) was administered as a course of 3 doses given at months 0, 1, and 6. Immunological examinations of the subjects were carried out before the first administration of the vaccine and at one month after completion of the course of immunization.
Participants were evaluated to determine levels of leukocytes in peripheral blood, leukocytary formula, the presence of marker specific lymphocytes (CD3, CD4, CD8, CD16, CD95 and CD20), lysosomal activity of neutrophils; oxygen-dependent metabolism with spontaneous and induced hematocrit (HCT) tests, phagocytary function of neutrophils according to the latex particle absorption model; immunoglobulin IgA, IgM, IgG concentrations; total hemolytic activity of complement (CH50) in blood serum and for circulating immune complexes. […] A concentration of 10 MU/liter (l) was assumed to be a protective hepatitis B titer.
The immunomodulator SCV-07 was administered at the same time as the hepatitis B vaccine to determine if SCV-07 increased the efficacy of vaccination and to determine if it would correct the immunity disorders of subjects with infectious syndrome. A one milligram (1 mg) dose of SCV-07 was administered as an intra muscular injection to the 32 subjects of Group 2 of the study on days one to five, where day one was the day the first dose of the hepatitis B vaccine was administered. One (1) mg of SCV-07 was also administered with the second and third doses of vaccine one month and 6 months following administration of the initial vaccine dose. Study participants in Group I received injections of physiological saline which were administered on the same schedule as the SCV-07 to provide a placebo control group.

[5] = test system: IL-2 production by ConA-stimulated thymic cells; assay: IL-2 production by ConA-stimulated thymic cells (IL-2-dependent CTLL-2 bioassay); type: in vivo, mice
Excerpt: Considering that significant enhancement of proliferation by SCV-07 might be due to its influence on IL-2 production, IL-2 activity was studied with the IL-2-dependent CTLL-2 line.

[6] = test system: IL-4 production by OvA-stimulated splenocytes; assay: OvA-stimulated production of IL-4 by splenocytes of OvA-immunized mice
Experimental: The OvA was administered subcutaneously to the crest in a volume of 200 μl. Mice were immunized on day 1 with OvA in complete Freund's adjuvant (CFA; Sigma) and on day 15 with the antigen in incomplete Freund's adjuvant (IFA; Sigma). The immune response was analyzed on day 29. Mice were also immunized with 10 μg/mouse of OvA using Alum as an adjuvant.
Thymuses and spleens from mice of each treatment group were pooled, and then minced with scissors. The minced tissues were suspended in sterile PBS to form cell suspensions, filtered through a double gauze layer and centrifuged. Cells were washed twice with PBS, re-suspended in RPMI-1640 (Sigma) with 2.0 mM of L-glutamine, 50 μM of mercaptoethanol, and 10 μg/ml of gentamycin (complete medium); and cell counts were made. (The splenocyte suspension was washed with a 0.86% solution of NH4Cl to pre-lyse erthrocytes.)
Assessment of Mitogen- and Antigen-Induced Production of Cytokines: Thymic cells (1×10^6/well) in complete medium with 2% FCS were stimulated with ConA (0, 1, and 2 μg/ml). […] Concentrations of IL-2, IL-4, IL-10, IL-12R40 and IFNγ in the supernatants were determined by solid-phase EIA with EIA Expansion Kits, available from BD Biosciences (formerly Pharmingen), in accordance with the manufacturer's instructions.

[7] = ConA 1 μg/ml, 0.01 μg/kg per os
[8] = ConA 1 μg/ml, 10.0 μg/kg per os
[9] = ConA 1 μg/ml, 100.0 μg/kg per os
[10] = ConA 5 μg/ml, 0.01 μg/kg per os
[11] = ConA 5 μg/ml, 10.0 μg/kg per os
[12] = ConA 5 μg/ml, 100.0 μg/kg per os
[13] = Spontaneous, 100.0 μg/kg per os

N[C@H](CCC(=O)N[C@@H](Cc1c[nH]c2ccccc12)C(=O)O)C(=O)O [SCV-07, γ-D-glutamyl-L-tryptophan]
Production of IFN-γ by splenocytes ([1]; OvA 50 μg/ml): 5066 pg/mL
Production of IFN-γ by splenocytes ([1]; OvA 100 μg/ml): 5976 pg/mL
Production of IFN-γ by splenocytes, % (% of control) ([1]; 0.1 μg/kg i/p, OvA 10 μg/ml): 126.6%
Production of IFN-γ by splenocytes, % (% of control) ([1]; 0.1 μg/kg i/p, OvA 25 μg/ml): 89.3%
Production of IFN-γ by splenocytes, % (% of control) ([1]; 0.1 μg/kg i/p, OvA 50 μg/ml): 118.0%
Production of IFN-γ by splenocytes, % (% of control) ([1]; 0.1 μg/kg i/p, OvA 100 μg/ml): 124.3%
Production of IFN-γ by splenocytes, % (% of control) ([1]; 1.0 μg/kg i/p, OvA 10 μg/ml): 139.0%
Production of IFN-γ by splenocytes, % (% of control) ([1]; 1.0 μg/kg i/p, OvA 25 μg/ml): 112.2%
Production of IFN-γ by splenocytes, % (% of control) ([1]; 1.0 μg/kg i/p, OvA 50 μg/ml): 99.0%
Production of IFN-γ by splenocytes, % (% of control) ([1]; 1.0 μg/kg i/p, OvA 100 μg/ml): 89.6%
IFN-γ [2, 7]: 15499 pg/mL
IFN-γ ([2]; ConA 1 μg/ml, 0.1 μg/kg i/p): 13089 pg/mL
IFN-γ ([2]; ConA 1 μg/ml, 0.1 μg/kg per os): 15695 pg/mL
IFN-γ ([2]; ConA 1 μg/ml, 1.0 μg/kg i/p): 30951 pg/mL
IFN-γ ([2]; ConA 1 μg/ml, 1.0 μg/kg per os): 11411 pg/mL
IFN-γ [2, 8]: 8238 pg/mL
IFN-γ [2, 9]: 12990 pg/mL
IFN-γ [2, 10]: 63227 pg/mL
IFN-γ ([2]; ConA 5 μg/ml, 0.1 μg/kg i/p): 87051 pg/mL
IFN-γ ([2]; ConA 5 μg/ml, 0.1 μg/kg per os): 65692 pg/mL
IFN-γ ([2]; ConA 5 μg/ml, 1.0 μg/kg i/p): 142155 pg/mL
IFN-γ ([2]; ConA 5 μg/ml, 1.0 μg/kg per os): 47683 pg/mL
IFN-γ [2, 11]: 66185 pg/mL
IFN-γ [2, 12]: 43670 pg/mL
IFN-γ ([2]; Spontaneous, 0.01 μg/kg per os): 0 pg/mL
IFN-γ ([2]; Spontaneous, 0.1 μg/kg i/p): 1393 pg/mL
IFN-γ ([2]; Spontaneous, 0.1 μg/kg per os): 0 pg/mL
IFN-γ ([2]; Spontaneous, 1.0 μg/kg i/p): 1738 pg/mL
IFN-γ ([2]; Spontaneous, 1.0 μg/kg per os): 1629 pg/mL
IFN-γ ([2]; Spontaneous, 10.0 μg/kg per os): 0 pg/mL
IFN-γ [2, 13]: 0 pg/mL
IL-4 [3, 7]: 98.7 pg/mL
IL-4 ([3]; ConA 1 μg/ml, 0.1 μg/kg i/p): 62.1 pg/mL
IL-4 ([3]; ConA 1 μg/ml, 0.1 μg/kg per os): 78.9 pg/mL
IL-4 ([3]; ConA 1 μg/ml, 1.0 μg/kg i/p): 52.8 pg/mL
IL-4 ([3]; ConA 1 μg/ml, 1.0 μg/kg per os): 95.8 pg/mL
IL-4 [3, 8]: 53.8 pg/mL
IL-4 [3, 9]: 83.1 pg/mL
IL-4 [3, 10]: 284.9 pg/mL
IL-4 ([3]; ConA 5 μg/ml, 0.1 μg/kg i/p): 277.5 pg/mL
IL-4 ([3]; ConA 5 μg/ml, 0.1 μg/kg per os): 229.6 pg/mL
IL-4 ([3]; ConA 5 μg/ml, 1.0 μg/kg i/p): 152.9 pg/mL
IL-4 ([3]; ConA 5 μg/ml, 1.0 μg/kg per os): 260.0 pg/mL
IL-4 [3, 11]: 275.0 pg/mL
IL-4 [3, 12]: 192.0 pg/mL
IL-4 ([3]; Spontaneous, 0.01 μg/kg per os): 6.1 pg/mL
IL-4 ([3]; Spontaneous, 0.1 μg/kg i/p): 4.2 pg/mL
IL-4 ([3]; Spontaneous, 0.1 μg/kg per os): 0.0 pg/mL
IL-4 ([3]; Spontaneous, 1.0 μg/kg i/p): 0.0 pg/mL
IL-4 ([3]; Spontaneous, 1.0 μg/kg per os): 25.3 pg/mL
IL-4 ([3]; Spontaneous, 10.0 μg/kg per os): 19.4 pg/mL
IL-4 [3, 13]: 27.1 pg/mL
CD20+ % [4]: 15.93 ± 1.20%
CH50, conv. units [4]: 64.53 ± 4.11 conv. units
CIC, conv. units [4]: 53.93 ± 8.03 conv. units
IgA [4]: 1.821 ± 0.087 g/L
IgG [4]: 8.931 ± 0.481 g/L
IgM [4]: 1.179 ± 0.089 g/L
IL-2 production (U/ml), M ± SD [5, 7]: 0.00 ± 0.00 U/ml
IL-2 production (U/ml), M ± SD ([5]; ConA 1 μg/ml, 0.1 μg/kg i/p): 0.25 ± 0.08 U/ml
IL-2 production (U/ml), M ± SD ([5]; ConA 1 μg/ml, 0.1 μg/kg per os): 0.10 ± 0.13 U/ml
IL-2 production (U/ml), M ± SD ([5]; ConA 1 μg/ml, 1.0 μg/kg i/p): 0.92 ± 0.06 U/ml
IL-2 production (U/ml), M ± SD ([5]; ConA 1 μg/ml, 1.0 μg/kg per os): 1.06 ± 0.37 U/ml
IL-2 production (U/ml), M ± SD [5, 8]: 0.25 ± 0.12 U/ml
IL-2 production (U/ml), M ± SD [5, 9]: 0.31 ± 0.15 U/ml
IL-2 production (U/ml), M ± SD ([5]; ConA 2 μg/ml, 0.01 μg/kg per os): 0.44 ± 0.11 U/ml
IL-2 production (U/ml), M ± SD ([5]; ConA 2 μg/ml, 0.1 μg/kg i/p): 1.40 ± 0.38 U/ml
IL-2 production (U/ml), M ± SD ([5]; ConA 2 μg/ml, 0.1 μg/kg per os): 1.00 ± 0.13 U/ml
IL-2 production (U/ml), M ± SD ([5]; ConA 2 μg/ml, 1.0 μg/kg i/p): 1.60 ± 0.15 U/ml
IL-2 production (U/ml), M ± SD ([5]; ConA 2 μg/ml, 1.0 μg/kg per os): 3.31 ± 0.01 U/ml
IL-2 production (U/ml), M ± SD ([5]; ConA 2 μg/ml, 10.0 μg/kg per os): 0.39 ± 0.12 U/ml
IL-2 production (U/ml), M ± SD ([5]; ConA 2 μg/ml, 100.0 μg/kg per os): 1.19 ± 0.30 U/ml
levels of IL-4 production in supernatants of OvA-stimulated splenocytes ([6]; OvA/Alum, all animal groups): below the sensitivity of the test system
levels of IL-4 in supernatants of OvA-stimulated splenocytes ([6]; OvA/FA, all animals, below the sensitivity of the test-system): < 6 pg/mL
